Seven compounds from PubChem BioAssay (NCI) can be followed below.

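Test compounds were applied to cells in 96-well plates for 48 hours at 5 doses. TGI marks complete inhibition of growth.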

Among the test systems are MALME-3M melanoma; UACC-257 melanoma; HL-60(TB) leukemia; OVCAR-4 ovarian; HOP-62 NSCLC; T-47D breast; MDA-MB-231 breast; MDA-MB-435; OVCAR-3 ovarian; SK-MEL-28 melanoma; SF-539 CNS; HOP-92 NSCLC; SNB-19 CNS; KM12 colon; A549 NSCLC; ACHN renal; CCRF-CEM leukemia; SW-620 colon; TK-10 renal; IGROV1 ovarian.
Assay in all cases: growth of human tumour cells (NCI), 48 h

On to `Cc1ccc(C(=O)OC(C)C)cc1N=NN(C)C`, for which the TGI with MALME-3M melanoma is above 100 µM; in the experiment with UACC-257 melanoma it was 81.9 µM; in the experiment with HL-60(TB) leukemia, above 100 µM; in the experiment on OVCAR-4 ovarian it was above 100 µM; in the experiment on HOP-62 NSCLC, above 100 µM; with T-47D breast, above 100 µM. Besides, the TGI with MDA-MB-231 breast, in the experiment with MDA-MB-435, with OVCAR-3 ovarian, with SK-MEL-28 melanoma, with SF-539 CNS and with HOP-92 NSCLC was above 100 µM in each case. Moreover, the TGI with SNB-19 CNS, with KM12 colon, with A549 NSCLC, with ACHN renal, in the experiment on CCRF-CEM leukemia and in the experiment on SW-620 colon was above 100 µM in each case. Further, the TGI in the experiment on TK-10 renal and in the experiment with IGROV1 ovarian was above 100 µM each time.
Consider `Cc1ccc(/C=N/Nc2cc(C)c3ccccc3n2)s1`, for which the TGI in the experiment on MALME-3M melanoma was 22.4 µM; in the experiment on UACC-257 melanoma, 50.7 µM; with HL-60(TB) leukemia, above 100 µM; in the experiment on OVCAR-4 ovarian it was above 100 µM; in the experiment with HOP-62 NSCLC, 30.8 µM; in the experiment on T-47D breast it was above 100 µM. In addition, the TGI is 19.9 µM in the experiment on MDA-MB-231 breast; above 100 µM in the experiment with MDA-MB-435; 7.93 µM in the experiment on OVCAR-3 ovarian; above 100 µM with SK-MEL-28 melanoma; 51.5 µM in the experiment with SF-539 CNS; 93.8 µM with HOP-92 NSCLC. Besides, the TGI in the experiment on SNB-19 CNS was above 100 µM; in the experiment on KM12 colon, 38.5 µM; in the experiment on A549 NSCLC, 40.6 µM; in the experiment on ACHN renal it was 45.4 µM; in the experiment on CCRF-CEM leukemia, above 100 µM; with SW-620 colon, above 100 µM. The values for the TGI in the experiment with TK-10 renal and with IGROV1 ovarian were above 100 µM and 24.9 µM, respectively.
Turning to `N#CC(c1ccccc1)N(CCc1ccccc1)C(=O)c1ccccc1` (stereo not given), the TGI is above 100 µM with MALME-3M melanoma; above 100 µM in the experiment on UACC-257 melanoma; above 100 µM in the experiment on HL-60(TB) leukemia; above 100 µM in the experiment on OVCAR-4 ovarian; above 85.8 µM with HOP-62 NSCLC; above 100 µM in the experiment on T-47D breast. Further, the TGI in the experiment on MDA-MB-231 breast is above 100 µM; in the experiment with MDA-MB-435, above 100 µM; in the experiment on OVCAR-3 ovarian, above 100 µM; in the experiment with SK-MEL-28 melanoma, above 100 µM; with SF-539 CNS, above 84.7 µM; with HOP-92 NSCLC, 59.7 µM. For the same compound, the TGI was above 81 µM with SNB-19 CNS; above 100 µM with KM12 colon; above 100 µM with A549 NSCLC; above 100 µM in the experiment on ACHN renal; above 100 µM in the experiment with CCRF-CEM leukemia; above 100 µM in the experiment with SW-620 colon. Moreover, the TGI with TK-10 renal and with IGROV1 ovarian was above 100 µM in each case.
Turning to `CN(CCCCN1CCCC1)CCCCN(C)C(=O)Cc1ccc(Cl)c(Cl)c1`, the TGI is 34.4 µM in the experiment with MALME-3M melanoma; 6.22 µM with UACC-257 melanoma; 36.1 µM with HL-60(TB) leukemia; 33.9 µM in the experiment with OVCAR-4 ovarian; 34.8 µM with HOP-62 NSCLC; 40.7 µM with T-47D breast. The TGI with MDA-MB-231 breast stood at 23.5 µM; in the experiment with MDA-MB-435 it was 5.3 µM; in the experiment on OVCAR-3 ovarian it was 44.5 µM; in the experiment on SK-MEL-28 melanoma, 3.88 µM; in the experiment with SF-539 CNS it was 23.3 µM; in the experiment on HOP-92 NSCLC, 17.5 µM. The TGI in the experiment on SNB-19 CNS is 36.8 µM; in the experiment on KM12 colon, 26.1 µM; in the experiment with A549 NSCLC, 31.2 µM; with ACHN renal it was 57.1 µM; in the experiment on CCRF-CEM leukemia, 20.7 µM; in the experiment with SW-620 colon, 38.4 µM. For the same compound, the TGI is 32.6 µM in the experiment with TK-10 renal and 37 µM in the experiment on IGROV1 ovarian.
With `C=CCOc1ccc(C2(c3ccc(OCC=C)cc3)C(=O)Nc3ccccc32)cc1`, the TGI in the experiment on MALME-3M melanoma, in the experiment on UACC-257 melanoma, with HL-60(TB) leukemia, in the experiment with OVCAR-4 ovarian, with HOP-62 NSCLC and in the experiment on T-47D breast was above 10 µM in each case. Besides, the TGI in the experiment on MDA-MB-231 breast, with MDA-MB-435, in the experiment with OVCAR-3 ovarian, in the experiment with SK-MEL-28 melanoma, in the experiment with SF-539 CNS and in the experiment with HOP-92 NSCLC was above 10 µM each time. Besides, the TGI in the experiment on SNB-19 CNS, in the experiment on KM12 colon, in the experiment on A549 NSCLC, in the experiment on ACHN renal, with CCRF-CEM leukemia and in the experiment with SW-620 colon was above 10 µM in each case. Further, the TGI with TK-10 renal and with IGROV1 ovarian was above 10 µM in each case.
On to `CN(C)Cc1cc(N=Nc2ccccc2Cl)ccc1O`, for which the TGI in the experiment on MALME-3M melanoma is 25.9 µM; with UACC-257 melanoma, 46.3 µM; in the experiment with HL-60(TB) leukemia it was 29.3 µM; in the experiment on OVCAR-4 ovarian, above 100 µM; with HOP-62 NSCLC it was 26.2 µM; in the experiment with T-47D breast it was 71.5 µM. In addition, the TGI with MDA-MB-231 breast was 86.4 µM; in the experiment on MDA-MB-435, 32.9 µM; in the experiment with OVCAR-3 ovarian it was 66.9 µM; in the experiment on SK-MEL-28 melanoma, 32.3 µM; in the experiment on SF-539 CNS, 59.5 µM; in the experiment with HOP-92 NSCLC, above 100 µM. The TGI with SNB-19 CNS was above 100 µM; with KM12 colon it was 75.5 µM; in the experiment on A549 NSCLC, 25.3 µM; with ACHN renal, 33.4 µM; in the experiment with CCRF-CEM leukemia, 54.2 µM; in the experiment with SW-620 colon it was 28 µM. For the same compound, the TGI in the experiment with TK-10 renal was 65.8 µM; with IGROV1 ovarian it was above 100 µM.
With `CC(=O)Nc1ccc(-c2nc3ccccc3s2)cc1Cl`, the TGI in the experiment with MALME-3M melanoma, in the experiment on UACC-257 melanoma, with HL-60(TB) leukemia, in the experiment on OVCAR-4 ovarian, in the experiment on HOP-62 NSCLC and in the experiment with T-47D breast was above 100 µM each time. Also, the TGI in the experiment with MDA-MB-231 breast, with MDA-MB-435, in the experiment with OVCAR-3 ovarian, in the experiment with SK-MEL-28 melanoma, in the experiment on SF-539 CNS and in the experiment with HOP-92 NSCLC was above 100 µM in each case. Also, the TGI in the experiment with SNB-19 CNS, with KM12 colon, with A549 NSCLC, in the experiment with ACHN renal, in the experiment on CCRF-CEM leukemia and in the experiment with SW-620 colon was above 100 µM throughout. The TGI in the experiment on TK-10 renal was 0.445 µM; in the experiment with IGROV1 ovarian, above 100 µM.
